Assay results: patent US7514454B2, “Piperidin-2,6-dione pamoate salts and their use for the treatment of stress-related affective disorders” (Prestwick Pharmaceuticals, Inc., priority 2002, dated 2009)

Assays:
[1] = tested on: tryptophan hydroxylase; assay: blockade of tryptophan hydroxylase activation; format: biochemical; conditions: activation by metabolic inhibitors such as guanidine and sodium cyanide
[2] = about 4 mg/kg/day (200-400 mg/day for human patients); cited from earlier work
[3] = 1 mg b.i.d. (about 30 μg/kg/day), FDA permitted dose levels; cited from earlier work
[4] = rats, 200 mg/kg/day p.o., cited from earlier work

blockade of tryptophan hydroxylase activation [1] | SMILES | effectiveness in the treatment of anxiety and depression [2] | anxiolytic properties [3] | hepatocyte changes revealed by post-mortem examination ([4]; 1 year, not detected by routine transaminase determinations) | weight loss ([4]; over the 1-year period, immediate and continuing) [%]
blocked | COc1cccc(C2(CCCN(C)C)C(=O)NC(=O)CC2(C)C)c1 (centres unmarked) [AGN 2979 pamoate, 3(3-methoxyphenyl)-3-(3-dimethylaminopropyl)-4,4-dimethyl-piperidine-2,6-dione pamoate] | – | – | – | –
– | COc1cccc(C2(CCCN(C)C)C(=O)NC(=O)CC2(C)C)c1.Cl (centres unmarked) [hydrochloride salt of AGN 2979] | effective | only marginally effective | hepatocyte changes | 40
